Where a name gives a salt, the structure may show the parent alone. Read-outs that look alike come from different tables or passages of the source.
Key:
Human mammary-carcinoma = Human mammary-carcinoma heterotransplanted to nu/nu mice; format: in vivo, human tumor in mouse (nu/nu); settings: cyclophosphamide single injection of 100 mg/kg
Procedure: (The experimental procedure was carried out as follows according to: C. O. Polvsen, G. K. Jacobsen, J. Rygaard, The Laboratory Animal in Drug Testing, Editor A. Spiegel, pages 63-73, Fischer-Verlag, Stuttgart, (1973).
(a) Human mammary-carcinoma from operation material of a women's clinic were heterotransplanted to thymusaplastic nu/ny mice. After the 23-25th passage in each case by implantation of a thin tumor section having a diameter of 8-10 mm into the milk ducts after growth of the implants to 0.15-0.25 grams the animals were subjected to therapy and the curative effect determined through measuring the tumor surface.

[1] = Acute toxicity (LD50), single intravenous dose, species not stated; settings: in vivo
[2] = Subchronic toxicity, NMRI-mouse; settings: same pattern without cysteine, total dosage 3 mmol/kg
[3] = mouse, in vivo

Cl [HCl pH 4, hydrochloric acid]
Reaction (+ = reaction, - = no reaction) (rat, in vivo): -
reaction (rat, in vivo): Neither

O=P1(N(CCCl)CCCl)NCCCO1 (centres unmarked) [cyclophosphamide]
tumor growth (Human mammary-carcinoma): checking of the tumor growth
LD50 [1]: 244 mg/kg
deaths of mice [2]: 6 mice
Approximate threshold concentration inducing venous pain (Table 1, sleeping rat): 30 mg/mL
concentration at which no reaction was induced (sleeping rat): below 30 mg/ml
Reaction (+ = reaction, - = no reaction) (sleeping rat, tail vein infusion): +

O=S(=O)([O-])CCS.[Na+]
prevention of pain induced by mafosfamide lysine salt (rat, in vivo): completely prevented the pain-inducing effect of mafosfamide lysine salt

O=P1(NCCCl)OCCCN1CCCl (centres unmarked) [ifosfamide]
Approximate threshold concentration inducing venous pain (rat, in vivo): > 10 mg/mL
Reaction (+ = reaction, - = no reaction) (rat, in vivo): +
concentration at which no reaction was induced (rat, in vivo): below 10 mg/ml

O=P1(N(CCCl)CCCl)NC(SCC(S)CS(=O)(=O)O)CCO1 (centres unmarked) [cyclohexylamine salt, 3-[2-(bis-(2-chloroethyl)-amine-2-oxo-tetrahydro-2H-1,3,2-oxazaphosphorine-4-yl-thio]-2-mercaptopropanesulfonic acid-cyclohexylamine salt]
increase of the LD50 [3]: 2-3 fold

CC(=O)N[C@@H](CS)C(=O)O [NAC, N-acetyl-cysteine]
prevention of pain induced by mafosfamide lysine salt (5 molar mesna or NAC solution): completely prevented the pain-inducing effect of mafosfamide lysine salt

Reference: patent US4770870A, “Method for reducing pain associated with the administration of 4-sulfido-oxazaphosphorines and 4-sulfoalkylthio-oxazaphorphorines” (Asta Pharma Aktiengesellschaft, priority 1981, dated 1988)
